Measurements published in patent US4496584A, “Amidine derivatives with anti-complement activity” (Torii & Co. Ltd., priority 1981, dated 1985).
“And” between values parts separate entries of the source, which are not always exact repeats. Equal values may be shown once. Read-outs that look alike come from different tables or passages of the source.

How the values were obtained:
[1] = tested on: complement mediated hemolysis; experiment: Inhibition of complement mediated hemolysis (method of Baker et al.); assay type: cell-based
Clr = target: T1, Clr (Homo sapiens, UniProt P00736); experiment: Anti-Cl esterase activity, Clr (AAME hydrolysis, method of Okamura et al.); assay type: biochemical; details: read-out: Anti-C1 activity, Clr (ID50)
T1 sequence (P00736 464-705 limits assumed): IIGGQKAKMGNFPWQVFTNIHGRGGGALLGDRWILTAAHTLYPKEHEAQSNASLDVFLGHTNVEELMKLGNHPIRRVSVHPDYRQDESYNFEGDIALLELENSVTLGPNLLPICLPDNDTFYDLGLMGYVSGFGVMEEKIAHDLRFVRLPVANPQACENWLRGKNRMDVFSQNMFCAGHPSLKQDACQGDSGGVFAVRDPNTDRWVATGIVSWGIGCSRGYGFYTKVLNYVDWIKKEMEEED
T1 sequence (P00736 18-463 partner limits assumed): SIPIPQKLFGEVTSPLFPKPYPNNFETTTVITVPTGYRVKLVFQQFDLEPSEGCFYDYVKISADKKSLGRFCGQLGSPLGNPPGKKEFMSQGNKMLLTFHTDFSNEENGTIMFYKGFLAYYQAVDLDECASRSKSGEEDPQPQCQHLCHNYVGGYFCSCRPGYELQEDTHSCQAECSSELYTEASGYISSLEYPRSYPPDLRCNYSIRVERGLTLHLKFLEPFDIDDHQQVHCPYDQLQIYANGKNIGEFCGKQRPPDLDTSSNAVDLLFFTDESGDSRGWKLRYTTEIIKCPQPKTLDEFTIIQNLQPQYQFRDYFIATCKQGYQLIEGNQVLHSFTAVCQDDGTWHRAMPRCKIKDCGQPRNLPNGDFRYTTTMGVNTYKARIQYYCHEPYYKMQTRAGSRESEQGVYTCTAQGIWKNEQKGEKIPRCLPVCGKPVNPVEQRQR
Experimental: (§1) The anti-Cl esterase (Clr, Cls) activity was determined according to the method of Okamura et al. [K. Okamura, M. Muramatsu and S. Fujii, Biochem. Biophys. Acta, 295, 252-257 (1973)]. The inhibition of complement mediated hemolysis (percent) was determined according to the method of Baker et al. [B. R. Baker and E. H. Erickson, J. Med. Chem., 12, 408-414 (1969)]. The figures in Table 2 have the following meanings:
Clr: Molar concentration of the test compound which inhibits 50% of the ability of Clr to hydrolyse AAME (acetylarginin methyl ester) (ID50).

kallikrein = experiment: Enzyme inhibition, TAME hydrolysis, kallikrein (method of Muramatsu et al.); assay type: biochemical; details: 1×10^-5 M
Experimental: (§2) The enzyme inhibitory activity was determined according to the method of Muramatsu et al. [M. Muramatsu, T. Onishi, S. Makino, Y. Hayashi and S. Fujii, J. Biochem., 58, 214 (1965)]. The data summarized in Table 1 are expressed in terms of molar concentration (ID50) of the test compound which inhibits 50% of the activity of each enzyme to hydrolyze TAME (tosylarginine methyl ester).

trypsin = target: T2, trypsin (Bos taurus, UniProt P00760); experiment: Enzyme inhibition, TAME hydrolysis, trypsin (method of Muramatsu et al.); assay type: biochemical; details: read-out: percentage inhibition, trypsin (figure in parentheses)
T2 sequence (P00760 24-246): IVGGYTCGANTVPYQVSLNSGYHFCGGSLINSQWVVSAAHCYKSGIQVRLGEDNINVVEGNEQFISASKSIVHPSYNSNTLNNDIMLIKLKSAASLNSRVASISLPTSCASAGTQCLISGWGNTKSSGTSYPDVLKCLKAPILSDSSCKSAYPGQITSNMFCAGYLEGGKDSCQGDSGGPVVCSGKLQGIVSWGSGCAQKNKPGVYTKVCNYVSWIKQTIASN
Experimental: as §2

[2] = Toxicity, lethal dose (LD50); details: mouse, in vivo
Forssman shock = experiment: Forssman shock, time elapsed until death; assay type: in vivo, guinea pig; details: 5 minutes before hemolysin
Experimental: The experiment was performed according to the method of I. G. Offerness et al. [Biochem. Pharmacol., 27 (14), 1873-1878 (1978)]. Male Hartlay guinea pig of about 300 g in body weight was used. Each guinea pig of the control group was administered intravenously with 0.5 ml (minimum dose to cause the shock) of hemolysin (commercial hemolysin, 5,000 U as assayed by the method of Ogata) and the time elapsed until death was observed. For the test group, each guinea pig was administered intravenously with the test compound 5 minutes before the administration of hemolysin and the time (second) elapsed until death was observed.

Cls = target: T3, Cls (Homo sapiens, UniProt P09871); experiment: Anti-Cl esterase activity, Cls (ATEE hydrolysis, method of Okamura et al.); assay type: biochemical; details: read-out: Anti-C1 activity, Cls (ID50)
T3 sequence (P09871 438-688 limits assumed): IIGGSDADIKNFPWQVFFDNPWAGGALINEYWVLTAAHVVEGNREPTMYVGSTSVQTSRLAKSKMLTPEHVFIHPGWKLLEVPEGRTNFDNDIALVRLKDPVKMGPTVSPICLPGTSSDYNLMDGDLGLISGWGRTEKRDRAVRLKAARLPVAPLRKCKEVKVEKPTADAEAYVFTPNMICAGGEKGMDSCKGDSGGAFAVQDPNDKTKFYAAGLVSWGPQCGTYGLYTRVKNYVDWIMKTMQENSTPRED
T3 sequence (P09871 16-437 partner limits assumed): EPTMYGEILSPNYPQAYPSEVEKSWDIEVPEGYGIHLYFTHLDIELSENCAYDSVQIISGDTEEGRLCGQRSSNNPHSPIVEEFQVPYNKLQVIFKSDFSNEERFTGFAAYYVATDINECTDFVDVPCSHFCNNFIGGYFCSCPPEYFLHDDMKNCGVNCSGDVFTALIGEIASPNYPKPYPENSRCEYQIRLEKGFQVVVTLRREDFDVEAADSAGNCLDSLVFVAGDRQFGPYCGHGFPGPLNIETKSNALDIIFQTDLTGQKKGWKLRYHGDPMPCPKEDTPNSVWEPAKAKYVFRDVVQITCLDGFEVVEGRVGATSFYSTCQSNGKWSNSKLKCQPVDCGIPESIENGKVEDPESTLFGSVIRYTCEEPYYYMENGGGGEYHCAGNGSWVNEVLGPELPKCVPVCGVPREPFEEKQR
Experimental: as §1
Cls: Molar concentration of the test compound which inhibits 50% of the ability of Cls to hydrolyse ATEE (acetyltyrosin ethyl ester) (ID50).

plasmin = plasmin (Homo sapiens, UniProt P00747); experiment: Enzyme inhibition, TAME hydrolysis, plasmin (method of Muramatsu et al.); assay type: biochemical; details: read-out: ID50, plasmin
Chain of plasmin (P00747 581-810 limits assumed): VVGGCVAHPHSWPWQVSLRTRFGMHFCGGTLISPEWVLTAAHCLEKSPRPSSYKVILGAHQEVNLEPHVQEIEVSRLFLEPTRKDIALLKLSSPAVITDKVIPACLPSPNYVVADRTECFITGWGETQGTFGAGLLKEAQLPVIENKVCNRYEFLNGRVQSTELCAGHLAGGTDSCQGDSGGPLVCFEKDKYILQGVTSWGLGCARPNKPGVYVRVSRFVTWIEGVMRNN
Chain of plasmin (P00747 97-580 partner limits assumed): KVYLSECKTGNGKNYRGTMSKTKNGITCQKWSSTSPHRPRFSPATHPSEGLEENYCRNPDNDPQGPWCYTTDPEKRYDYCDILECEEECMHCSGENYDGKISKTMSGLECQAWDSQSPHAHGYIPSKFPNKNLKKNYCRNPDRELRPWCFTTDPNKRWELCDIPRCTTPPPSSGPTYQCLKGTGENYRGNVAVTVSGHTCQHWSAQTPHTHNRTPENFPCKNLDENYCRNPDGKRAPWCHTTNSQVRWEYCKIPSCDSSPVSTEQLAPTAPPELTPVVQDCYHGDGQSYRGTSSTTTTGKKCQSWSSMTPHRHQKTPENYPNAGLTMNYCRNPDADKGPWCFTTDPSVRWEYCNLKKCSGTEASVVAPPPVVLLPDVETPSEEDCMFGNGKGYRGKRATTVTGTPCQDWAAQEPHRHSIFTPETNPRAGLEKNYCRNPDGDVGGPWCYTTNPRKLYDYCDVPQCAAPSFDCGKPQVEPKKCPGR
Experimental: as §2

thrombin = thrombin (Bos taurus, UniProt P00735); experiment: Enzyme inhibition, TAME hydrolysis, thrombin (method of Muramatsu et al.); assay type: biochemical
Experimental: as §2

With N=C(N)c1ccc2cc(OC(=O)[C@H]3CC[C@H](CN)CC3)ccc2c1 [Compound No. 20, 6-amidino-2-naphthyl trans-4-aminomethylcyclohexanecarboxylate] the “Inhibition of complement mediated hemolysis (%)” value (from here on “Inhibition … (%)”) ([1]; concentration 1 × 10^-4) was 100%, the “Inhibition … (%)” value ([1]; concentration 1 × 10^-5) was 99% and the “Inhibition … (%)” value ([1]; concentration 1 × 10^-6) was 80%. The “Inhibition … (%)” value ([1]; concentration 1 × 10^-7) was 12%, the IC50 (Clr) was 5 µM and the “percentage inhibition, kallikrein (figure in parentheses)” value (kallikrein) was 38%. For the same compound, the inhibition at 10 µM (trypsin) was 28%, the LD50 ([2]; ip, read-out: LD50 Mouse IP) was 175 mg/kg and the LD50 ([2]; po, read-out: LD50 Mouse PO) was 2000 mg/kg. The “time elapsed until death, Average” value (Forssman shock; 1.0 mg/kg intravenously, average of 6, control average 428) was 442 s, the “time elapsed until death” value (Forssman shock; 1.0 mg/kg intravenously, individual animals 1-6) was 360 s and 365 s and 325 s and 620 s and 650 s and the “time elapsed until death / survival” value (Forssman shock; 3.0 mg/kg intravenously, individual animals 1-6, ditto mark = Survival) was “Survival”. For the same compound, the IC50 (Cls) was 4 µM, the IC50 (plasmin) was over 10 µM and the IC50 (thrombin) was over 10 µM.
